Data set [1] relates to Leptospira of serogroup Icterohaemorrhagiae. Nature of the data set: Antigenic mass of fermenter culture by antigen Elisa, serogroup Icterohaemorrhagiae. The format is cell-based, L. interrogans (sensu lato). As to conditions: for Ag U/10^9 cells/ml, at 3 days: different BSA ingredients in EMJH medium, no supplementation; for antigenic mass: average of days 3-5; for Ag. mass, average of days 3-5, Ag U/10^9 cells/ml: EMJH with standard BSA; for Ag. mass, average of days 4-5, Ag U/10^9 cells/ml: standard BSA, total 105 μg/ml; for relative Ag. mass (%), average of days 4-5: relative to non-supplemented = 100. As for the experimental part:
(§1) During all fermentation experiments the temperature was controlled at about 29° C. The medium was aerated with headspace airflow, and the dissolved oxygen (pO2) concentration was controlled by automatic variation of the agitation-rate, to maintain a set pO2 concentration. Temperature, pH and pO2 concentration were monitored online, but pH and foam formation were not controlled.
(§2) Supplementation was done either with pure linoleic acid (Sigma Aldrich, >99% pure) as a 10% v/v stock in absolute ethanol (JT Baker). Alternatively, linoleic acid was supplemented by using a BSA that was created with a high level of linoleic acid (high LA BSA). This high LA BSA was used either to replace a standard BSA in EMJH medium, or was used in addition to BSA in the EMJH medium, in which case it was added as a 25% w/v stock solution in sterile water. The high LA BSA or the pure linoleic acid/ethanol supplements were fed to a fermentor over the course of 4 hours, at 0.1-0.2 ml/hour, until the fermentor culture had received a desired total amount of linoleic acid. Different total available levels of linoleic acid have been tested, of between about 5 and 425 μg/ml in the total volume. The fermenter cultures of Leptospira were supplemented at different cell-densities i.e. at early-, mid- or end phase culture. Typical mid-phase cell density was at about 5×10̂8 cells/ml, which was reached during day 2 of the main incubation. Upon supplementation with linoleic acid from the pure linoleic acid in ethanol stock, sometimes a small decrease in pH was noted, which was corrected by applying some NaOH.
(§3) 2004. Royal Tropical Institute, Amsterdam.
An arbitrary number of antigen units is affixed to the sample, for example: 1000 Units/ml.

The test system of data set [2] is Leptospira from serogroup Grippotyphosa. The experiment in a line: Antigenic mass of fermenter culture by antigen Elisa, serogroup Grippotyphosa. Particulars: for Antigenic mass, 2 day average, Ag U/10^9 cells/ml: average of days 4 and 5. The format is cell-based, L. interrogans (sensu lato). As for the experimental part: as §2, §3
(§4) In a next study it was confirmed that the increase in antigenic mass upon supplementation with linoleic acid is a general phenomenon in Leptospira. In several experiments cultures of Leptospira strains from several serogroups were proliferated in fermenters in similar set-ups as before and with a similar supplementation: in EMJH medium with either standard BSA or with high LA BSA; some cultures were further supplemented with 100 μg/ml linoleic acid, from pure linoleic acid in ethanol. Results of analyses of biomass and antigen amount are presented in FIGS. 6-7 (Sejroe), and 8-9 (Grippotyphosa), and are summarised in Table 5.
For serogroup Grippotyphosa the scores were averaged over days 4 and 5 of the culture.

Data set [3] concerns Leptospira from serogroup Sejroe (serovar Hardjo). The experiment in a line: Antigenic mass of fermenter culture by antigen Elisa, serogroup Sejroe. Format: cell-based, L. interrogans (sensu lato). As to conditions: for Antigenic mass, 2 day average, Ag U/10^9 cells/ml: average of days 5 and 6. As for the experimental part: as §2, §3, §4
Some increase in biomass was observed after supplementation, but the increase in antigen amount was much higher. The fermenter was run for 6 days, and scores for these experiments were averaged over days 5 and 6 of the culture.

In data set [4] the test system is Leptospira from serogroup Australis (serovar Bratislava). The experiment in a line: Antigenic mass of fermenter culture by antigen Elisa, serogroup Australis. The format is cell-based, L. interrogans (sensu lato). As for the experimental part:
as §2, §3, §4
Similarly, for serogroup Australis (serovar Bratislava), an increase in antigenic mass with 45% was observed; here the low LA BSA medium was used for supplementation.

A further data set concerns Leptospira culture. The experiment in a line: Linoleic acid supplementation of a Leptospira culture, serogroup not stated. The format is cell-based. As for the experimental part:
as §2

Data set [5] has as its system Leptospira of serogroup Icterohaemorrhagiae. Nature of the data set: Biomass (total cell count, Petroff-Hausser counting chamber) of fermenter culture, serogroup Icterohaemorrhagiae. Format: cell-based, L. interrogans (sensu lato). As for the experimental part:
as §1
as §2, with “Typical mid-phase cell density was at about 5×10̂8 cells/ml, which was reached during day 2 of the main incubation. Upon supplementation with linoleic acid from the pure linoleic acid in ethanol stock, sometimes a small decrease in pH was noted, which was corrected by applying some NaOH.” left out

The mark [6] stands for this setting: EMJH with high LA BSA, C18:2 total 25 μg/ml.
Setting [7] is: EMJH with high LA BSA, C18:2 total 25 μg/ml, serves as reference = 100.
The mark [8] stands for this setting: 100 μg/ml added, total 125 μg/ml, relative to high LA BSA culture = 100.
Setting [9] is: 100 μg/ml pure linoleic acid in ethanol added to high LA BSA medium, C18:2 total 125 μg/ml.

As to “BSA, BovoStar ®: a standard all-purpose BSA from the same manufacturer (Bovogen)”, the “Ag U/10^9 cells/ml, at 3 days” value in data set [1] is 533 Ag U/10^9 cells/ml.

“high LA BSA: BSA that was created with a high level of linoleic acid”: the “increase of antigenic mass” value in data set [1] (25 instead of 5 μg/ml linoleic acid available) was found to be 124%. In data set [1] (high LA BSA at 1% w/v in EMJH, 25 μg/ml linoleic acid available), the antigenic mass turned out to be 1636 Ag U/1×10̂9 cells. For the same compound, the “Ag. mass, average of days 3-5, Ag U/10^9 cells/ml” value in data set [1] (supplemented 50 μg/ml linoleic acid as high LA BSA solution, C18:2 total 55 μg/ml) came out at 1612 Ag U/10^9 cells/ml. Moreover, the “relative Ag. mass (%), average of days 3-5” value in data set [1] (supplemented 50 μg/ml linoleic acid as high LA BSA, C18:2 total 55 μg/ml, relative to non-supplemented culture = 100) was determined as 221%. Further, the “Antigenic mass, 2 day average, Ag U/10^9 cells/ml” value in data set [2] (setting [6]) stood at 5074 Ag U/10^9 cells/ml; in data set [3] (setting [6]), 287 Ag U/10^9 cells/ml. For the same compound, the “relative Ag. mass (%)” value in data set [2] (setting [7]) and in data set [3] (setting [7]) was 100% in each case.

As to `CCCCCC=CCC=CCCCCCCCC(=O)O` [linoleic acid, 9,12-octadecadienoic acid], the antigenic mass in data set [1] (100 μg/ml pure linoleic acid in ethanol added on day 2 (mid-exponential), EMJH with high LA BSA) stood at 1767 Ag. U/1×10̂9 cells. In addition, the “Ag. mass, average of days 4-5, Ag U/10^9 cells/ml” value in data set [1] (100 μg/ml pure linoleic acid in ethanol supplemented at 1 × 10^8 cells/ml (early phase)) was 1783 Ag U/10^9 cells/ml; in data set [1] (100 μg/ml pure linoleic acid in ethanol supplemented at 5 × 10^8 cells/ml (mid phase)), 1564 Ag U/10^9 cells/ml; in data set [1] (100 μg/ml pure linoleic acid in ethanol supplemented at 9 × 10^8 cells/ml (late phase)), 1656 Ag U/10^9 cells/ml. In addition, the “increase in antigenic mass after supplementation at different phases” value in data set [1] (100 μg/ml, early-, mid-, late exponential phase, sampling at 2, 4 and 8 hours after the suppletion) is “acute increase in antigenic mass can be induced at all phases of the Leptospira culture”. For the same compound, the “increase of the antigenic mass” value in data set [1] (200 μg/ml pure linoleic acid in ethanol, EMJH with high LA BSA) is given as “slightly less increase of the antigenic mass compared to that of the 100 μg/ml group”; in data set [1] (exemplary increase following application of the method (linoleic acid supplementation)), 121%; in data set [2] (supplementation with linoleic acid (100 μg/ml) of high LA BSA medium), 63%; in data set [4] (supplementation of low LA BSA medium), 45%; with Leptospira culture (25 μg linoleic acid available per ml of culture compared to about 5 μg/ml), “significant increase of the antigenic mass”; in data set [3] (supplementation with 100 μg/ml linoleic acid of high LA BSA culture medium), 184%. Further, the “Ag. mass, average of days 3-5, Ag U/10^9 cells/ml” value in data set [1] (supplemented 75 μg/ml in mid-exponential phase, C18:2 total 80 μg/ml) is listed as 1450 Ag U/10^9 cells/ml; in data set [1] (supplemented 150 μg/ml in mid-exponential phase, C18:2 total 155 μg/ml), 1550 Ag U/10^9 cells/ml. The “relative Ag. mass (%), average of days 3-5” value in data set [1] (supplemented 75 μg/ml, C18:2 total 80 μg/ml, relative to non-supplemented culture with standard BSA = 100) stood at 199%; in data set [1] (supplemented 150 μg/ml, C18:2 total 155 μg/ml, relative to non-supplemented culture with standard BSA = 100) it was 213%. The “relative Ag. mass (%), average of days 4-5” value in data set [1] (supplemented at 1 × 10^8 cells/ml, 100 μg/ml) was found to be 226%; in data set [1] (supplemented at 5 × 10^8 cells/ml, 100 μg/ml), 198%; in data set [1] (supplemented at 9 × 10^8 cells/ml, 100 μg/ml) it was 210%. Further, the “relative Ag. mass (%)” value in data set [2] (setting [8]) is reported as 163%; in data set [4] (100 μg/ml added, total 105 μg/ml, relative to non-supplemented culture = 100), 145%; in data set [3] (setting [8]), 284%. Besides, the “Antigenic mass, 2 day average, Ag U/10^9 cells/ml” value in data set [2] (setting [9]) was found to be 8286 Ag U/10^9 cells/ml; in data set [4] (100 μg/ml pure linoleic acid added to low LA BSA medium, C18:2 total 105 μg/ml), 12822 Ag U/10^9 cells/ml; in data set [3] (setting [9]), 814 Ag U/10^9 cells/ml. Further, the toxicity entry with Leptospira culture (highest availability level tested, 425 μg/ml, preparation of pure linoleic acid) is listed as “some toxicity was noticeable for some serovars”. The “toxicity for the bacteria (cell numbers decreased rapidly after supplementation)” value in data set [5] (400 μg/ml pure linoleic acid in ethanol, EMJH with high LA BSA) is “induced toxicity”.

Take “BSA, Millipore: a standard commercial BSA (Millipore)”: the “Ag U/10^9 cells/ml, at 3 days” value in data set [1] is listed as 525 Ag U/10^9 cells/ml.

Consider “BSA, BovoLep ®: BSA (Bovogen, Australia) recommended for Leptospira culture; standard BSA enriched with a number of vegetable fatty acids”, for which, in data set [1] (BSA ingredient in EMJH medium), the “effect on antigenic mass” value is given as “no significant effect”. Also, the “Ag U/10^9 cells/ml, at 3 days” value in data set [1] is 498 Ag U/10^9 cells/ml. Moreover, the “effect on biomass of Leptospira” value in data set [5] (BSA ingredient in EMJH medium) was “did increase the biomass”.

Values taken from patent publication US20140178433A1, “[…] INCREASED ANTIGENIC MASS” (priority 2012, published 2014).
